Test results published in article PMC5660261 (Frontiers in Pharmacology, 2017).

Columns and labels:
human CB2R [1] = target: T1, human CB2R (Homo sapiens, UniProt P34972); assay: HTRF (Tag-lite) competition binding of red CB2R ligand in living HEK-293T cells expressing SNAP-CB2R; settings: 100 nM red CB2R ligand, low nanomolar CBD concentrations
T1 construct: host or cells: HEK-293T, transient transfection, living cells

human GPR55 = target: T2, human GPR55 (Homo sapiens, UniProt Q9Y2T6); assay: Forskolin-induced intracellular cAMP determination in HEK-293T cells expressing GPR55; assay type: cell-based
T2 construct: expressed in transfected cells; host or cells: HEK-293T, transient transfection
Method: Two hours before initiating the experiment, growth medium was replaced by serum-free DMEM. Then, HEK-293T cells transiently expressing CB2R or GPR55 were detached and resuspended in growing medium containing 50 μM zardaverine and plated in 384-well microplates (2,500 cells/well), pretreated (15 min) with the corresponding antagonists—or vehicle—and stimulated with agonists (15 min) before adding 0.5 μM forskolin or vehicle. Readings were performed after 15 min of incubation at 25°C. HTRF measures were performed using the Lance Ultra cAMP kit (PerkinElmer, Waltham, MA, United States). Fluorescence at 665 nm was analyzed on a PHERAstar Flagship microplate reader equipped with an HTRF optical module (BMG Lab Technologies, Offenburg, Germany).

human CB2R [2] = target: T1, human CB2R; assay: Forskolin-induced intracellular cAMP determination in HEK-293T cells expressing CB2R; assay type: cell-based
human CB2R [3] = target: T1, human CB2R; assay: HTRF (Tag-lite) saturation binding of red CB2R ligand in living HEK-293T cells expressing SNAP-CB2R

T1 sequence (P34972 whole entry): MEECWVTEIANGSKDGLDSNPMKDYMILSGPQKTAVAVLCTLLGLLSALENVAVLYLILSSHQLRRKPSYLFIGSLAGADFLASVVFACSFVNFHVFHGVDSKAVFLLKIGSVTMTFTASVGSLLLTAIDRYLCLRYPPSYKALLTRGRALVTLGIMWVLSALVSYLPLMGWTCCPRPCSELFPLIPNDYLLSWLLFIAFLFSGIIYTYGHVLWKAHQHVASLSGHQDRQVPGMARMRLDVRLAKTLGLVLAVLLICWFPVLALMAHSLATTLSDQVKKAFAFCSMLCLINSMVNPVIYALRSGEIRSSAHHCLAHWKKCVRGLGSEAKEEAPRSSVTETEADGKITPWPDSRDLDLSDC
T2 sequence (Q9Y2T6 whole entry): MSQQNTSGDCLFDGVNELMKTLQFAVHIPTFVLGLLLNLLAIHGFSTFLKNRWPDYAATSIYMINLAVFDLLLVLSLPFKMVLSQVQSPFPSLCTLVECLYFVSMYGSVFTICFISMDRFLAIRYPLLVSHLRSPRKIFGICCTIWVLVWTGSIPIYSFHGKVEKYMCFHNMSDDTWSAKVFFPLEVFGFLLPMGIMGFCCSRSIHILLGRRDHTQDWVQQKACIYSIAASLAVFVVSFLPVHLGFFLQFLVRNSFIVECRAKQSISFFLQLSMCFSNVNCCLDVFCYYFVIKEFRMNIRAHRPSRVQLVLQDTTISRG

Compound: C=C(C)[C@@H]1CCC(C)=C[C@H]1c1c(O)cc(CCCCC)cc1O [CBD, cannabidiol]
- reduction of fluorescent agonist binding (human CB2R [1]): circa 25%
- cAMP response to combined treatment with CBD and JWH133 (human GPR55; 100 nM JWH133, HEK-293T transiently transfected with GPR55): not significantly different than that achieved by CBD alone
- cAMP signal of compound alone (human GPR55; HEK-293T cells expressing human GPR55): results were similar to those in cells expressing the CB2R
- G-protein-coupled signal (cAMP) of compound alone (human CB2R [2]; concentration range 1–1,000 nM, no agonist, HEK-293T cells expressing human CB2R): did not significantly engage any G-protein-coupled signal

Compound: CCCC(C)(C)c1ccc2c(c1)OC(C)(C)[C@@H]1CC=C(C)C[C@@H]21 [JWH133]
- Agonist-induced reduction in cAMP (human CB2R [2]; 100 nM JWH133, data given in percentage of the 500 nM forskolin-induced cAMP concentration): 31 ± 4

Compound: SR144528
- effect on maximum binding (Bmax) of red CB2R ligand (human CB2R [3]): reduced Bmax values
